The subject of the series is Cell Growth. Briefly: Inhibition of Cell Growth (ICG) as marker for cytotoxicity / biological reactivity. Format: cell-based. An excerpt:
FIG. 1 is a diagram showing the relation ship between Inhibition of Cell Growth (ICG) and concentration of 3,4-DGE in a solution.
In order to investigate and come up with the present invention, the present inventors studied the relationship between the different GDPs and came to the conclusion that the GDPs interact according to the reaction formula given above.

“Also recorded” adds a separate entry of the source.

On to `O=CC(=O)C=CC(O)CO` (centres unmarked) [3,4-DGE, 3,4-dideoxyglucosone-3-ene], for which, for the setting “FIG. 1, ICG used as measure/marker for biological reactivity”, the “relationship between concentration of 3,4-DGE and Inhibition of Cell Growth (ICG)” value was “good dose relation between 3,4-DGE and cytotoxicity; also recorded: dose dependent relationship”. Moreover, where the note is “known GDPs: acetaldehyde, formaldehyde, glyoxal, methylglyoxal, 3-DG, 5-HMF”, the “toxicity compared with the other known GDPs” value is given as “mast toxic of the known GDPs”.
